Assay results taken from ChEMBL document CHEMBL3751819, “Navigating into the chemical space between MGCD0103 and SAHA: novel histone deacetylase inhibitors as a promising lead” (Medchemcomm, 2015).
Each block holds one compound with its values, some of them ahead of it. Active and inactive are the calls of the source. No cut-off for these calls is given here.

Key:
HeLa [1] = test: Induction of apoptosis in human HeLa cells assessed as viable cells at 1.25 uM after 48 hrs by annexin-V-FITC/propidium iodide staining based flow cytometry (reference value: 88.6%); assay type: functional
HeLa [2] = test: Induction of apoptosis in human HeLa cells assessed as early apoptotic cells at 1.25 uM after 48 hrs by annexin-V-FITC/propidium iodide staining based flow cytometry (reference value: 1.4%); assay type: functional
HeLa [3] = test: Induction of apoptosis in human HeLa cells assessed as late apoptotic cells at 1.25 uM after 48 hrs by annexin-V-FITC/propidium iodide staining based flow cytometry (reference value: 9.3%); assay type: functional
HeLa [4] = test: Induction of apoptosis in human HeLa cells assessed as necrotic cells at 1.25 uM after 48 hrs by annexin-V-FITC/propidium iodide staining based flow cytometry (reference value: 0.693%); assay type: functional
HeLa [5] = test: Induction of apoptosis in human HeLa cells assessed as viable cells at 2.5 uM after 48 hrs by annexin-V-FITC/propidium iodide staining based flow cytometry (reference value: 88.6%); assay type: functional
HeLa [6] = test: Induction of apoptosis in human HeLa cells assessed as early apoptotic cells at 2.5 uM after 48 hrs by annexin-V-FITC/propidium iodide staining based flow cytometry (reference value: 1.4%); assay type: functional
HeLa [7] = test: Induction of apoptosis in human HeLa cells assessed as late apoptotic cells at 2.5 uM after 48 hrs by annexin-V-FITC/propidium iodide staining based flow cytometry (reference value: 9.3%); assay type: functional
HeLa [8] = test: Induction of apoptosis in human HeLa cells assessed as necrotic cells at 2.5 uM after 48 hrs by annexin-V-FITC/propidium iodide staining based flow cytometry (reference value: 0.693%); assay type: functional
HeLa [9] = test: Induction of apoptosis in human HeLa cells assessed as viable cells at 5 uM after 48 hrs by annexin-V-FITC/propidium iodide staining based flow cytometry (reference value: 88.6%); assay type: functional
HeLa [10] = test: Induction of apoptosis in human HeLa cells assessed as early apoptotic cells at 5 uM after 48 hrs by annexin-V-FITC/propidium iodide staining based flow cytometry (reference value: 1.4%); assay type: functional
HeLa [11] = test: Induction of apoptosis in human HeLa cells assessed as late apoptotic cells at 5 uM after 48 hrs by annexin-V-FITC/propidium iodide staining based flow cytometry (reference value: 9.3%); assay type: functional
HeLa [12] = test: Induction of apoptosis in human HeLa cells assessed as necrotic cells at 5 uM after 48 hrs by annexin-V-FITC/propidium iodide staining based flow cytometry (reference value: 0.693%); assay type: functional
[13] = Half life in artificial intestinal fluid; assay type: ADME
[14] = Half life in mouse plasma; assay type: ADME, cell-free
[15] = Half life in mouse microsomes; assay type: ADME, Microsome
A549 [16] = test: Antiproliferative activity against human A549 cells assessed as reduction in cell viability after 24 hrs by MTT assay; assay type: functional, cell-based; conditions: A549, 24 h
A549 [17] = test: Antiproliferative activity against human A549 cells assessed as reduction in cell viability after 48 hrs by MTT assay; assay type: functional, cell-based; conditions: A549, 48 h
A549 [18] = test: Antiproliferative activity against human A549 cells assessed as reduction in cell viability after 72 hrs by MTT assay; assay type: functional, cell-based; conditions: A549, 72 h
HeLa [19] = test: Antiproliferative activity against human HeLa cells assessed as reduction in cell viability after 24 hrs by MTT assay; assay type: functional, cell-based
HeLa [20] = test: Antiproliferative activity against human HeLa cells assessed as reduction in cell viability after 48 hrs by MTT assay; assay type: functional, cell-based
HeLa [21] = test: Antiproliferative activity against human HeLa cells assessed as reduction in cell viability after 72 hrs by MTT assay; assay type: functional, cell-based
HepG2 [22] = test: Antiproliferative activity against human HepG2 cells assessed as reduction in cell viability after 24 hrs by MTT assay; assay type: functional, cell-based; conditions: HepG2, 24 h
HepG2 [23] = test: Antiproliferative activity against human HepG2 cells assessed as reduction in cell viability after 48 hrs by MTT assay; assay type: functional, cell-based; conditions: HepG2, 48 h
HepG2 [24] = test: Antiproliferative activity against human HepG2 cells assessed as reduction in cell viability after 72 hrs by MTT assay; assay type: functional, cell-based; conditions: HepG2, 72 h
[25] = Antiproliferative activity against human HCT116 cells assessed as reduction in cell viability after 24 hrs by MTT assay; assay type: functional, cell-based; conditions: HCT-116, 24 h
[26] = Antiproliferative activity against human HCT116 cells assessed as reduction in cell viability after 48 hrs by MTT assay; assay type: functional, cell-based; conditions: HCT-116, 48 h
[27] = Antiproliferative activity against human HCT116 cells assessed as reduction in cell viability after 72 hrs by MTT assay; assay type: functional, cell-based; conditions: HCT-116, 72 h
MCF7 [28] = test: Antiproliferative activity against human MCF7 cells assessed as reduction in cell viability after 24 hrs by MTT assay; assay type: functional, cell-based; conditions: MCF7, 24 h
MCF7 [29] = test: Antiproliferative activity against human MCF7 cells assessed as reduction in cell viability after 48 hrs by MTT assay; assay type: functional, cell-based; conditions: MCF7, 48 h
MCF7 [30] = test: Antiproliferative activity against human MCF7 cells assessed as reduction in cell viability after 72 hrs by MTT assay; assay type: functional, cell-based; conditions: MCF7, 72 h
[31] = target: T1, Protein deacetylase HDAC6 (Homo sapiens) (UniProt Q9UBN7); test: Inhibition of HDAC6 in human A549 cells assessed as increase in acetylated tubulin expression at 5 uM incubated for 12 hrs by DAPI staining based immunofluorescence microscopy; assay type: cell-based
T1 sequence (whole entry): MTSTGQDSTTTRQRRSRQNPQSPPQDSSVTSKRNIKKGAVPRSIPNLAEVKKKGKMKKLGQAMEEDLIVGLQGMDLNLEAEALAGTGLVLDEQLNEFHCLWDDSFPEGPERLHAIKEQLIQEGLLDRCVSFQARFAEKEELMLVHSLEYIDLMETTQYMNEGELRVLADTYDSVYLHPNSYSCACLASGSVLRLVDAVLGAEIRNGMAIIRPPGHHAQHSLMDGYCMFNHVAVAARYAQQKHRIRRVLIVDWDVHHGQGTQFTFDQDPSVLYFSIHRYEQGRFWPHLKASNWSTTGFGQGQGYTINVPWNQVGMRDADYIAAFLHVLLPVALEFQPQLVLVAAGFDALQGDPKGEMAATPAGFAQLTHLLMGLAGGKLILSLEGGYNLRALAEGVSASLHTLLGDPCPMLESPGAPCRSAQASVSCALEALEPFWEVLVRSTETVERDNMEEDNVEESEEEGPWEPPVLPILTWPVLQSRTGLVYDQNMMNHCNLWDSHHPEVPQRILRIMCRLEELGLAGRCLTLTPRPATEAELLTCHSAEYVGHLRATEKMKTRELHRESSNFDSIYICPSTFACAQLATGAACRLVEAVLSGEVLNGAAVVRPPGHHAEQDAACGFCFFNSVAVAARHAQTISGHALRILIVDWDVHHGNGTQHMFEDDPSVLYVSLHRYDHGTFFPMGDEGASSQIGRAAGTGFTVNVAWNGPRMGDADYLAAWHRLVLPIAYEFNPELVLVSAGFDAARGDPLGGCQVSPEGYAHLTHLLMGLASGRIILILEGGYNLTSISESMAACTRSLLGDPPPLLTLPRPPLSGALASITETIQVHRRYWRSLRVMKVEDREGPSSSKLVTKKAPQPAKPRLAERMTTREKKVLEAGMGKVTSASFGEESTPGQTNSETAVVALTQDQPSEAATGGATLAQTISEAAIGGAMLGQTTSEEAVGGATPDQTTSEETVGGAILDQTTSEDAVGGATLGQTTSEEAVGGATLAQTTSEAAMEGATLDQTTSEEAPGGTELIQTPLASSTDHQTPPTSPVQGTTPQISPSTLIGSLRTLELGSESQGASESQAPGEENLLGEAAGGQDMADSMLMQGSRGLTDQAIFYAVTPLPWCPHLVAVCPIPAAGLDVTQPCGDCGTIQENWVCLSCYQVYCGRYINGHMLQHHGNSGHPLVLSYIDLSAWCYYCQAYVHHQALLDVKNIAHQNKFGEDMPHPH

[32] = Half life in artificial gastric fluid; assay type: ADME
[33] = Elimination half life in po dosed patient plasma by HPLC/MS analysis; assay type: ADME, organism-based; conditions: human, read-out: beta t1/2 (converted)
[34] = Homo sapiens, HeLa, 48 h, read-out: Activity

half-life [13]: > 24 h | half-life [14]: 3 h | half-life [15]: 1.33 h
Structure (SMILES): O=C(CCCCCCC(=O)Nc1ccccc1)NO [VORINOSTAT]
Activity (HeLa [1]): 85.1% | Activity (HeLa [2]): 4.1% | Activity (HeLa [3]): 10.2% | Activity (HeLa [4]): 0.654% | Activity (HeLa [5]): 77.4% | Activity (HeLa [6]): 6.56% | Activity (HeLa [7]): 15.1% | Activity (HeLa [8]): 0.957% | Activity (HeLa [9]): 83.9% | Activity (HeLa [10]): 7.84% | Activity (HeLa [11]): 7.6% | Activity (HeLa [12]): 0.61%

IC50 (A549 [16]): 59.9 µM | IC50 (A549 [17]): 14.6 µM | IC50 (A549 [18]): 11.9 µM | IC50 (HeLa [19]): 43.8 µM | IC50 (HeLa [20]): 3.32 µM | IC50 (HeLa [21]): 3.42 µM | IC50 (HepG2 [22]): 5.79 µM | IC50 (HepG2 [23]): 4.05 µM | IC50 (HepG2 [24]): 4.25 µM | IC50 (MCF7 [28]): 84.2 µM | IC50 (MCF7 [29]): 56.8 µM | IC50 (MCF7 [30]): 2.49 µM | inhibition [31]: inactive | half-life [32]: > 24 h | half-life [13]: > 24 h | half-life [14]: 10 h | half-life [15]: 2.62 h | half-life [33]: 9 h
Structure (SMILES): Nc1ccccc1NC(=O)c1ccc(CNc2nccc(-c3cccnc3)n2)cc1 [MOCETINOSTAT]
IC50 [25]: 29.7 µM | IC50 [26]: 1.24 µM | IC50 [27]: 3.51 µM | viability at 1.25 µM (HeLa [1]; [34]): 87.1% | Activity (HeLa [2]): 3.9% | Activity (HeLa [3]): 8.23% | Activity (HeLa [4]): 0.78% | viability at 2.5 µM (HeLa [5]; [34]): 84.5% | Activity (HeLa [6]): 9.13% | Activity (HeLa [7]): 5.98% | Activity (HeLa [8]): 0.437% | viability at 5 µM (HeLa [9]; [34]): 74.6% | Activity (HeLa [10]): 12.5% | Activity (HeLa [11]): 11.6% | Activity (HeLa [12]): 1.33%
